Experimental data published in article PMC6057649, “Development of NanoLuc-PEST expressing Leishmania mexicana as a new drug discovery tool for axenic- and intramacrophage-based assays” (PLoS Neglected Tropical Diseases, 2018).
pEC50: −log10 of the molar value.

System: NanoLuc-PEST expressing L. mexicana axenic amastigotes
Test: microbe, parasite or virus in culture
Assay type: cell-based
Conditions: for Relative Bioluminescence (%): 72 hours, relative to DMSO only control, n = 4

FC(F)(F)c1cnc(Sc2nnc(-c3ccncc3)o2)c(Cl)c1 [MMV011765]
Relative Bioluminescence (%) (2 µM compound): 84.80%
Relative Bioluminescence (%) (10 µM compound): 45.24%

Cc1nc2ccccn2c1C(=O)NCc1ccc(Cl)cc1 [MMV012074]
Relative Bioluminescence (%) (2 µM compound): 98.27%
Relative Bioluminescence (%) (10 µM compound): 123.86%

Cc1cc(Nc2ccncc2)n2nc(C)c(-c3ccccc3Cl)c2n1 [MMV016136]
Relative Bioluminescence (%) (2 µM compound): 83.56%
Relative Bioluminescence (%) (10 µM compound): 91.85%

Cc1ccc(-c2cc(C(=O)Nc3cccnc3)c3cc(Br)ccc3n2)cc1 [MMV016838]
Relative Bioluminescence (%) (2 µM compound): 44.83%
Relative Bioluminescence (%) (10 µM compound): 13.69%

Cc1cc(C)n2nc(C(=O)Nc3cc(C(F)(F)F)ccc3N3CCOCC3)nc2n1 [MMV019087]
Relative Bioluminescence (%) (2 µM compound): 89.61%
Relative Bioluminescence (%) (10 µM compound): 89.32%

Cc1ccc2c(c1C)NC(=O)C21NN=C(c2ccccc2)S1 (stereo not shown) [MMV019189]
Relative Bioluminescence (%) (2 µM compound): -1.73%
Relative Bioluminescence (%) (10 µM compound): -1.42%
pEC50 (hit compounds from the axenic amastigote screen, S3 Table, read-out: EC50, Axenic Amastigotes): 6.49

COc1ccc(C2CC(c3cccs3)=NN2C(=O)c2ccco2)cc1OC (stereo not shown) [MMV019234]
Relative Bioluminescence (%) (2 µM compound): 106.08%
Relative Bioluminescence (%) (10 µM compound): 39.61%

CCC(NC(=O)c1ccccc1NC(=O)c1ccc(C)cc1)C(=O)OC (stereo not shown) [MMV019551]
Relative Bioluminescence (%) (2 µM compound): 70.29%
Relative Bioluminescence (%) (10 µM compound): 42.20%

CCN(CC)S(=O)(=O)c1ccc(Cl)c(C(=O)Nc2ccc3nc(C)sc3c2)c1 [MMV019721]
Relative Bioluminescence (%) (2 µM compound): 65.53%
Relative Bioluminescence (%) (10 µM compound): 69.43%

Cc1ccc(S(=O)(=O)N2CCN(C(=O)c3cc(-c4ccccc4)n[nH]3)CC2)cc1 [MMV019742]
Relative Bioluminescence (%) (2 µM compound): 69.14%
Relative Bioluminescence (%) (10 µM compound): 102.67%

CCOc1ccccc1C(=O)Nc1cccc(-c2nc3ncccn3c2C)c1 [MMV019790]
Relative Bioluminescence (%) (2 µM compound): 85.04%
Relative Bioluminescence (%) (10 µM compound): 56.75%

Cc1ccc2cc(C3NC(=O)c4ccccc4N3)c(Cl)nc2c1 (stereo not shown) [MMV019807]
Relative Bioluminescence (%) (2 µM compound): 69.92%
Relative Bioluminescence (%) (10 µM compound): 111.93%

O=C(Nc1ccnc(-c2cccnc2)n1)c1cc(C(F)(F)F)cc(C(F)(F)F)c1 [MMV019838]
Relative Bioluminescence (%) (2 µM compound): 125.18%
Relative Bioluminescence (%) (10 µM compound): 86.78%

Cc1nn(C)cc1C(C)Nc1nncc(-c2ccc(C(F)(F)F)cc2)n1 (stereo not shown) [MMV019993]
Relative Bioluminescence (%) (2 µM compound): 96.83%
Relative Bioluminescence (%) (10 µM compound): 70.73%

COc1cccc(CC(=O)N2CCC(n3c(C)nc4ccc(F)cc43)CC2)c1 [MMV020081]
Relative Bioluminescence (%) (2 µM compound): 98.78%
Relative Bioluminescence (%) (10 µM compound): 73.47%

CC1CC1C(=O)NC1CCN(CC2(c3ccccc3)CCCCC2)CC1 (stereo not shown) [MMV020120]
Relative Bioluminescence (%) (2 µM compound): 92.92%
Relative Bioluminescence (%) (10 µM compound): 99.97%

CNC(=O)c1cc(S(=O)(=O)N2CCN(c3ccccn3)CC2)cs1 [MMV020136]
Relative Bioluminescence (%) (2 µM compound): 108.03%
Relative Bioluminescence (%) (10 µM compound): 122.06%

Cc1cc(C(=O)Nc2ccc(-c3ccccc3)cc2)no1 [MMV020152]
Relative Bioluminescence (%) (2 µM compound): 89.71%
Relative Bioluminescence (%) (10 µM compound): 108.81%

CC(C)NCC(=O)Nc1cccc(C(=O)Nc2cccc(C(F)(F)F)c2)c1 [MMV020165]
Relative Bioluminescence (%) (2 µM compound): 63.67%
Relative Bioluminescence (%) (10 µM compound): 61.89%

Cc1ccc(NC(=O)c2cc(S(=O)(=O)NC(C)(C)C)ccc2C)nc1 [MMV020289]
Relative Bioluminescence (%) (2 µM compound): 103.50%
Relative Bioluminescence (%) (10 µM compound): 71.21%

CC(C(=O)N1CCCC1)N1CCN(S(=O)(=O)c2ccc(C(C)(C)C)cc2)CC1 (stereo not shown) [MMV020291]
Relative Bioluminescence (%) (2 µM compound): 117.25%
Relative Bioluminescence (%) (10 µM compound): 111.14%
